The source of these data is patent publication US20250064941A1, “SIGLEC LIGANDS, CONJUGATES, AND METHODS OF USE THEREOF” (Osprey Biopharmaceuticals, Inc., priority 2023, published 2025).

Assay [1] concerns the target cynomolgus Siglec-2/CD22 (Macaca fascicularis, UniProt A0A2K5WCZ6). Briefly: biochemical. In kind it is binding. Particulars: SPR, steady-state analysis; read-out: Affinity cyno CD22. Put shortly: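 SPR with desialylated (SialoExo, 4 h, 37° C.) cynomolgus CD22 amine-coupled to a CM5 chip. Running buffer 10 mM HEPES, 150 mM NaCl, 0.05% Tween-20, pH 7.5, 1% DMSO, with solvent correction; 120 s dissociation. Affinities from steady-state analysis.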

For assay [2], the target named is T1, mouse Siglec-2-Fc-Avi (CD22) (Mus musculus, UniProt P35329).
T1 construct: made in house
T1 sequence (P35329 22-708 limits assumed): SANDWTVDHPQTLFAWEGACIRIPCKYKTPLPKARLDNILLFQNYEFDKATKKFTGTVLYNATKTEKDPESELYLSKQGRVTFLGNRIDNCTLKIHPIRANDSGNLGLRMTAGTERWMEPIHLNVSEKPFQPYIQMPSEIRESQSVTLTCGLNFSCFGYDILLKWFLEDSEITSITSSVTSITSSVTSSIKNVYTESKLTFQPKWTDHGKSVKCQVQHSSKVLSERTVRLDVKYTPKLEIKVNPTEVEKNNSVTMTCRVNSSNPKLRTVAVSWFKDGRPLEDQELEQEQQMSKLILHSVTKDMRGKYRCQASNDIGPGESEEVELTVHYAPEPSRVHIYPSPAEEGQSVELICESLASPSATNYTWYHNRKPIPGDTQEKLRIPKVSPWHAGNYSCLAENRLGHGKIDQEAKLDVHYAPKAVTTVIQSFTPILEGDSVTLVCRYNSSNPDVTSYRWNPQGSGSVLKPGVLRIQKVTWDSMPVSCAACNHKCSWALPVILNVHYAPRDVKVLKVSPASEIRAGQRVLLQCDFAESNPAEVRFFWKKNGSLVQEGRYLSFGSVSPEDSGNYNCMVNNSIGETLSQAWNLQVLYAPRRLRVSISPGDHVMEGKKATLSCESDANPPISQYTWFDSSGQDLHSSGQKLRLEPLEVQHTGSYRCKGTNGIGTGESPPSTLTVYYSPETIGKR
Briefly: SPR binding affinity to mouse CD22. Particulars: steady-state analysis. Put shortly: (§1)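 Using a Biacore 8K, compounds were tested against biotinylated CD22 captured after sialidase treatment. The running buffer held 1% DMSO, corrected with a 0.5–2% DMSO series. Affinity was derived by steady-state analysis.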
(In general: Surface plasmon resonance follows binding to a sensor surface in real time, without labels.)

Assay [3] addresses T2, human Siglec-2/CD22 protein (Homo sapiens, UniProt P20273).
T2 construct: purchased Acro Biosystems SI2-H82E3
T2 sequence (P20273 20-847): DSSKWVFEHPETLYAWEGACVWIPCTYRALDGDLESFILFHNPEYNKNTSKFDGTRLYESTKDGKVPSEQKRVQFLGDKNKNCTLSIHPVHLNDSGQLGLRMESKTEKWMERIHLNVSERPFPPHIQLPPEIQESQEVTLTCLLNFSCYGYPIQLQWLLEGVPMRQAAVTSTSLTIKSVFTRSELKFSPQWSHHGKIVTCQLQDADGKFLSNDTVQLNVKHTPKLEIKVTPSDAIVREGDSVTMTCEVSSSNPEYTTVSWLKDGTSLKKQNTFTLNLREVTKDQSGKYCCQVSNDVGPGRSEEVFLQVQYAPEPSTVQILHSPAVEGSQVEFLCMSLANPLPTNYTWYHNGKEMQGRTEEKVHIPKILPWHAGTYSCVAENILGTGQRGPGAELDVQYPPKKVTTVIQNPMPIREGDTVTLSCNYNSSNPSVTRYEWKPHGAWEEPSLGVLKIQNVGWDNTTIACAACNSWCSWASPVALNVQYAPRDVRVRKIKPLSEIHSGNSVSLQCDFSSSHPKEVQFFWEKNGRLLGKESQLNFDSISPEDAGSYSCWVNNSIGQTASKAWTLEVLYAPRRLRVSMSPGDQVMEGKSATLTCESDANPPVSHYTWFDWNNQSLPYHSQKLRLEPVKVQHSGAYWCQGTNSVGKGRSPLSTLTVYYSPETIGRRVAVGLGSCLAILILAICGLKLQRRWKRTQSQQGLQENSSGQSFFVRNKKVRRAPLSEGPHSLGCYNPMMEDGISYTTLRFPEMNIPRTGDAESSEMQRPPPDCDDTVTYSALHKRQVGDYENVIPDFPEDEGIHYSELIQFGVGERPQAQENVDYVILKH
Nature of the assay: SPR binding affinity to human CD22. Conditions: steady-state analysis. Put shortly: as §1

cynomolgus Siglec-2/CD22, sequence (A0A2K5WCZ6 entry or part of it): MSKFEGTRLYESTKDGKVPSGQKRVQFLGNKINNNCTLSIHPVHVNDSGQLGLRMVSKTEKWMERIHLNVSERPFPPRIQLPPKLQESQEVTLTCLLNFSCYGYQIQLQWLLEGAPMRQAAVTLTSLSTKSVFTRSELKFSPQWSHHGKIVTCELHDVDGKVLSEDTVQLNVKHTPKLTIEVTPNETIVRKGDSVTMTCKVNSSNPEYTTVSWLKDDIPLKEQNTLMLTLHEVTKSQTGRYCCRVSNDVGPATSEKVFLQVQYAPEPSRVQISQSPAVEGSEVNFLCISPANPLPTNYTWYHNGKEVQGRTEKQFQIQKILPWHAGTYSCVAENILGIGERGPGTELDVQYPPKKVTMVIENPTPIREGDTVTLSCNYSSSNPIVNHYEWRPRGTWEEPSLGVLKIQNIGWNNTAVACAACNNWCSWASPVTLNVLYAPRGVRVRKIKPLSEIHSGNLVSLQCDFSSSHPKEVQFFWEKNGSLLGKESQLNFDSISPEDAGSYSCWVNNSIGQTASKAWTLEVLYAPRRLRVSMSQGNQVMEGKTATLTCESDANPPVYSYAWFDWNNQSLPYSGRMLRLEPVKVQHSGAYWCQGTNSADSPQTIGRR

Consider `C#CCCOc1ccc(CO[C@]2(C(=O)O)C[C@H](O)[C@@H](NC(=O)CO)[C@H]([C@H](O)[C@H](O)CNC(=O)C(OC)(c3ccccc3)C(F)(F)F)O2)cc1` (stereo partly drawn) [Compound 171, (2R,4S,5R,6R)-2-((4-(but-3-yn-1-yloxy)benzyl)oxy)-6-((1R,2R)-1,2-dihydroxy-3-(3,3,3-trifluoro-2-methoxy-2-phenylpropanamido)propyl)-4-hydroxy-5-(2-hydroxyacetamido)tetrahydro-2H-pyran-2-carboxylic acid], for which the Kd in assay [1], in assay [2] and in assay [3] was 1 to 10 µM each time.

Consider `C#CCCOc1ccc(CO[C@]2(C(=O)O)C[C@H](O)[C@@H](NC(=O)CO)[C@H]([C@H](O)[C@H](O)CNC(=O)C(F)(F)c3ccccc3)O2)cc1` [Compound 172, (2R,4S,5R,6R)-2-((4-(but-3-yn-1-yloxy)benzyl)oxy)-6-((1R,2R)-3-(2,2-difluoro-2-phenylacetamido)-1,2-dihydroxypropyl)-4-hydroxy-5-(2-hydroxyacetamido)tetrahydro-2H-pyran-2-carboxylic acid], for which the Kd in assay [1], in assay [2] and in assay [3] was 1 to 10 µM each time.

For the compound `C#CCCOc1ccc(CO[C@]2(C(=O)O)C[C@H](O)[C@@H](NC(=O)CO)[C@H]([C@H](O)[C@H](O)CNC(=O)C3(c4ccccc4)CC3)O2)cc1` [Compound 173, (2R,4S,5R,6R)-2-((4-(but-3-yn-1-yloxy)benzyl)oxy)-6-((1R,2R)-1,2-dihydroxy-3-(1-phenylcyclopropane-1-carboxamido)propyl)-4-hydroxy-5-(2-hydroxyacetamido)tetrahydro-2H-pyran-2-carboxylic acid], the Kd in assay [1] was 1 to 10 µM; in assay [2], greater than 10 µM; in assay [3], 1 to 10 µM.

Regarding `C#CCOCCOCCO[C@]1(C(=O)O)C[C@H](O)[C@@H](NC(=O)CO)[C@H]([C@H](O)[C@H](O)CNC(=O)Cc2ccc(OC)cc2)O1` [Compound 174, (2R,4S,5R,6R)-6-((1R,2R)-1,2-dihydroxy-3-(2-(4-methoxyphenyl)acetamido)propyl)-4-hydroxy-5-(2-hydroxyacetamido)-2-(2-(2-(prop-2-yn-1-yloxy)ethoxy)ethoxy)tetrahydro-2H-pyran-2-carboxylic acid], the Kd in assay [1], in assay [2] and in assay [3] was 1 to 10 µM each time.

As to `C#CCOCCOCCO[C@]1(C(=O)O)C[C@H](O)[C@@H](NC(=O)CO)[C@H]([C@H](O)[C@H](O)CNC(=O)Cc2ccc(C)cc2)O1` [Compound 175, (2R,4S,5R,6R)-6-((1R,2R)-1,2-dihydroxy-3-(2-(p-tolyl)acetamido)propyl)-4-hydroxy-5-(2-hydroxyacetamido)-2-(2-(2-(prop-2-yn-1-yloxy)ethoxy)ethoxy)tetrahydro-2H-pyran-2-carboxylic acid], the Kd in assay [1], in assay [2] and in assay [3] was 1 to 10 µM in each case.

With `C#CCOCCCCCCO[C@]1(C(=O)O)C[C@H](O)[C@@H](NC(=O)CO)[C@H]([C@H](O)[C@H](O)CNC(=O)Cc2ccc(-c3nnn[nH]3)cc2)O1` [Compound 176, (2R,4S,5R,6R)-6-((1R,2R)-3-(2-(4-(1H-tetrazol-5-yl)phenyl)acetamido)-1,2-dihydroxypropyl)-4-hydroxy-5-(2-hydroxyacetamido)-2-((6-(prop-2-yn-1-yloxy)hexyl)oxy)tetrahydro-2H-pyran-2-carboxylic acid], the Kd in assay [1], in assay [2] and in assay [3] was less than 1 µM throughout.

For `C#CCOCCOCCO[C@]1(C(=O)O)C[C@H](O)[C@@H](NC(=O)CO)[C@H]([C@H](O)[C@H](O)CNC(=O)Cn2cc(-c3ccccc3)nn2)O1` [Compound 177, (2R,4S,5R,6R)-6-((1R,2R)-1,2-dihydroxy-3-(2-(4-phenyl-1H-1,2,3-triazol-1-yl)acetamido)propyl)-4-hydroxy-5-(2-hydroxyacetamido)-2-(2-(2-(prop-2-yn-1-yloxy)ethoxy)ethoxy)tetrahydro-2H-pyran-2-carboxylic acid], the Kd was 1 to 10 µM in assay [1], greater than 10 µM in assay [2] and 1 to 10 µM in assay [3].

Turning to `C#CCOCCOCCO[C@@]1(C(=O)O)O[C@@H]([C@H](O)[C@H](O)CNC(=O)Cc2ccc(-c3ccccc3)cc2)[C@H](NC(=O)CO)[C@@H](NC(=O)CC)[C@@H]1O` [Compound 178, (2R,3S,4R,5R,6R)-6-((1R,2R)-3-(2-([1,1′-biphenyl]-4-yl)acetamido)-1,2-dihydroxypropyl)-3-hydroxy-5-(2-hydroxyacetamido)-2-(2-(2-(prop-2-yn-1-yloxy)ethoxy)ethoxy)-4-propionamidotetrahydro-2H-pyran-2-carboxylic acid], the Kd in assay [1] was 1 to 10 µM; in assay [2] it was greater than 10 µM; in assay [3] it was 1 to 10 µM.

For the compound `C#CCOCCOCCO[C@]1(C(=O)O)C[C@H](O)[C@@H](NC(=O)CO)[C@H]([C@H](O)[C@H](O)CNC(=O)c2cc3c(s2)-c2ccccc2OC3)O1` [Compound 179, (2R,4S,5R,6R)-6-((1R,2R)-1,2-dihydroxy-3-(4H-thieno[3,2-c]chromene-2-carboxamido)propyl)-4-hydroxy-5-(2-hydroxyacetamido)-2-(2-(2-(prop-2-yn-1-yloxy)ethoxy)ethoxy)tetrahydro-2H-pyran-2-carboxylic acid], the Kd is 1 to 10 µM in assay [1], greater than 10 µM in assay [2] and less than 1 µM in assay [3].

As to `C#CCOCCCCCCO[C@]1(C(=O)O)C[C@H](O)[C@@H](NCC(=O)N(C)C)[C@H]([C@H](O)[C@H](O)CNC(=O)Cc2ccc(Cl)cc2)O1` [Compound 180, (2R,4S,5R,6R)-6-((1R,2R)-3-(2-(4-chlorophenyl)acetamido)-1,2-dihydroxypropyl)-5-((2-(dimethylamino)-2-oxoethyl)amino)-4-hydroxy-2-((6-(prop-2-yn-1-yloxy)hexyl)oxy)tetrahydro-2H-pyran-2-carboxylic acid], the Kd is 1 to 10 µM in assay [1], 1 to 10 µM in assay [2] and greater than 10 µM in assay [3].

On to `C#CCOCCCCCCO[C@]1(C(=O)O)C[C@H](O)[C@@H](NCC(=O)NC)[C@H]([C@H](O)[C@H](O)CNC(=O)Cc2ccc(Cl)cc2)O1` [Compound 181, (2R,4S,5R,6R)-6-((1R,2R)-3-(2-(4-chlorophenyl)acetamido)-1,2-dihydroxypropyl)-4-hydroxy-5-((2-(methylamino)-2-oxoethyl)amino)-2-((6-(prop-2-yn-1-yloxy)hexyl)oxy)tetrahydro-2H-pyran-2-carboxylic acid], for which the Kd in assay [1], in assay [2] and in assay [3] was 1 to 10 µM in each case.

On to `C#CCOCCCCCCO[C@]1(C(=O)O)C[C@H](O)[C@@H](NCC(N)=O)[C@H]([C@H](O)[C@H](O)CNC(=O)Cc2ccc(Cl)cc2)O1` [Compound 182, (2R,4S,5R,6R)-5-((2-amino-2-oxoethyl)amino)-6-((1R,2R)-3-(2-(4-chlorophenyl)acetamido)-1,2-dihydroxypropyl)-4-hydroxy-2-((6-(prop-2-yn-1-yloxy)hexyl)oxy)tetrahydro-2H-pyran-2-carboxylic acid], for which the Kd in assay [1], in assay [2] and in assay [3] was 1 to 10 µM each time.
